In publication PMC3118479 (Bioorganic & medicinal chemistry, 2011):

Assays:
human D2(long) = human D2(long) (Homo sapiens, UniProt P14416); assay: Competitive radioligand binding at D2 dopamine receptor with 125I-IABN; conditions: for D3:D2: Ki for D3 receptors/Ki for D2 receptors; for D4:D2: Ki for D4 receptors/Ki for D2 receptors
human D3 = human D3 (Homo sapiens, UniProt P35462); assay: Competitive radioligand binding at D3 dopamine receptor with 125I-IABN; conditions: relative to aripiprazole
Sequence of human D3 (P35462 whole entry): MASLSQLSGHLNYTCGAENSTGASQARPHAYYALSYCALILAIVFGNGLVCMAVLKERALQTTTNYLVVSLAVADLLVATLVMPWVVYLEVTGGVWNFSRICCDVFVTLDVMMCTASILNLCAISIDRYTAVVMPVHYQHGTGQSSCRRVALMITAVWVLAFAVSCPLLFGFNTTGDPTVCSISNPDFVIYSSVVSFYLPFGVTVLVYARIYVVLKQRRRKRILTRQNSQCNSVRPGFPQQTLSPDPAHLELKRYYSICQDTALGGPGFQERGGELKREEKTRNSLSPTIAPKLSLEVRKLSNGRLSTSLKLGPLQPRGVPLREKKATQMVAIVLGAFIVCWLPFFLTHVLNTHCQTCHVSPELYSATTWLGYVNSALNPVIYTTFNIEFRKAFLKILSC

human D4 = target: T1, human D4 (Homo sapiens, UniProt P21917); type: binding; conditions: human D4 expressed in HEK cells, [125I]ABN radioligand; mean ± SEM, at least three experiments
T1 sequence (P21917 1-419): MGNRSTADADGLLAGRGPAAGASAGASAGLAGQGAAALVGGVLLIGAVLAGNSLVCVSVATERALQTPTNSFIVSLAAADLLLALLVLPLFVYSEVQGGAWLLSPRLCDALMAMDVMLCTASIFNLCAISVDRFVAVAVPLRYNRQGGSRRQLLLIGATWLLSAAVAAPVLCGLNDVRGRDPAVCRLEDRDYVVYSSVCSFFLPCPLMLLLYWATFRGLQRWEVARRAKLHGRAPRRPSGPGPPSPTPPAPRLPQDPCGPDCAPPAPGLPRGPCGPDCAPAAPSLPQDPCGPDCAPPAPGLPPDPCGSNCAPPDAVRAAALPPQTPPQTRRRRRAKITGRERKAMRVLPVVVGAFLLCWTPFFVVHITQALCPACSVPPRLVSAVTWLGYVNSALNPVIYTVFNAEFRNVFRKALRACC

human D2 receptors = human D2 receptors (Homo sapiens, UniProt P14416); assay: Whole cell forskolin-dependent adenylyl cyclase inhibition assay, D2L HEK cells; type: cell-based
Sequence of human D2 receptors (P14416 whole entry): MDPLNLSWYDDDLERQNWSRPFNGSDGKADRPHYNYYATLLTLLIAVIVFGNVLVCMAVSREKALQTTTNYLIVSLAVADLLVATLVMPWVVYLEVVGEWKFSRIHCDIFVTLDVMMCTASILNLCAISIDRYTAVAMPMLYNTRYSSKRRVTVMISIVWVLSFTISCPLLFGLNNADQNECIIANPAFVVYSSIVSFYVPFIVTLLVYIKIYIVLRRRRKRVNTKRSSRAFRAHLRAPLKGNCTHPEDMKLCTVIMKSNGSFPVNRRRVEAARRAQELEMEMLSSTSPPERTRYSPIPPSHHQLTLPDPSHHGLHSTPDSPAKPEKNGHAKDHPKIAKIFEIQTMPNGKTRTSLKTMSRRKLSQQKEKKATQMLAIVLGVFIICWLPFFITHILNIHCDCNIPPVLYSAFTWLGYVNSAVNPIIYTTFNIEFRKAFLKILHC

Sequence of human D2(long) (P14416 whole entry): as above

Row | Structure (SMILES) | D3:D2 (human D2(long)) | D4:D2 (human D2(long)) | increase in affinity at D2 receptors (human D2(long); relative to aripiprazole) | decrease in affinity at D3 receptors (human D3) | Ki D4 (human D4) | intrinsic efficacy greater at D2 receptors compared to D3 receptors (human D2 receptors)
1 | O=C(O)C(=O)O.O=C1CCc2ccc(OCCCCN3CCC(n4c(=O)[nH]c5ccccc54)CC3)cc2N1 [Compound 3, 7-(4-(4-(2-Oxo-2,3-dihydro-1H-benzo[d]imidazol-1-yl)-piperidin-1-yl)butoxy)-3,4-dihydroquinolin-2(1H)-one oxalate] | 6.1 | 7.1 | – | – | – | –
2 | O=C(O)C(=O)O.O=C1CCc2ccc(OCCCCN3CCC(n4c(=O)[nH]c5cc(Cl)ccc54)CC3)cc2N1 [Compound 4, 7-(4-(4-(5-Chloro-2-oxo-2,3-dihydro-1H-benzo[d]imidazol-1-yl)piperidin-1-yl)butoxy)-3,4-dihydroquinolin-2(1H)-one oxalate] | 1.9 | 4.4 | – | – | – | –
3 | CN1CN(c2ccccc2)C2(CCN(CCCCOc3ccc4c(c3)NC(=O)CC4)CC2)C1=O.O=C(O)C(=O)O [Compound 5, 7-(4-(3Methyl-4-oxo-1-phenyl-1,3,8-triazaspiro[4.5]decan-8-yl)butoxy)-3,4-dihydro-quinolin-2(1H)-one oxalate] | 0.7 | 1.4 | – | – | – | –
4 | O=C(O)C(=O)O.O=C1CCc2ccc(OCCCCN3CCN(c4ccccc4OCCF)CC3)cc2N1 [Compound 7, 7-(4-(4-(2-(2-Fluoroethoxy)phenyl)piperazin-1-yl)butoxy)-3,4-dihydroquinolin-2(1H)-one oxalate] | – | – | 12 fold | 2 fold | low affinity | 16–75%
